This assay addresses RIPK1 (Homo sapiens (Human), UniProt Q13546). Put plainly: RIPK1-ADP-Glo Enzymatic Assay. It counts as biochemical. The note with it: recombinant GST-RIPK1 kinase domain (residues 1-327), 25 nM, ten-point titration, 30 minutes pre-incubation. Put shortly:
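GST-RIPK1 kinase domain (residues 1-327, Sf21-expressed; 25 nM final) was pre-incubated 30 min at ambient temperature with compound (10-point 1:3 series from 100000 nM, 1% DMSO) in HEPES pH 7.3 buffer with 20 mM MgCl2. The reaction was started with 900 μM ATP (addition solution) and 3 μM dephosphorylated MBP and ran 150 min. Read-out was ADP-Glo luminescence, with EC50 from a four-parameter fit.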
For orientation: In ADP-Glo the light output rises with the ADP produced.

Chain of RIPK1 (Q13546 1-327): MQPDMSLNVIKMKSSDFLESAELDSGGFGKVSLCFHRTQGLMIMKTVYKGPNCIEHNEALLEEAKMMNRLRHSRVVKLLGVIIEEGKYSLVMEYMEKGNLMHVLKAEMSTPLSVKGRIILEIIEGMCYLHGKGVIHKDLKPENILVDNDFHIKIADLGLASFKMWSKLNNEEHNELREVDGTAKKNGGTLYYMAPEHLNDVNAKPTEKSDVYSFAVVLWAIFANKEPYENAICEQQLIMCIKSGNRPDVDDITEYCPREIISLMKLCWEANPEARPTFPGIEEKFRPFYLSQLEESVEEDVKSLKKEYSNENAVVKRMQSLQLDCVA

For orientation: EC50 means the concentration at which the effect is half-maximal. As for `Cc1cc(N2CCC3(CC2)CN2CC[C@@H](c4cc(F)cc(F)c4)N2C3=O)nc(C#N)n1` [Example 1.16, (S)-4-(7′-(3,5-difluorophenyl)-1′-oxodihydro-1′H,3′H,5′H-spiro[piperidine-4,2′-pyrazolo[1,2-a]pyrazol]-1-yl)-6-methylpyrimidine-2-carbonitrile], the EC50 was found to be 67 nM. Consider `O=C1N2[C@H](c3cc(F)cc(F)c3)CCN2CC12CCN(c1cc(F)ncc1F)CC2` [Example 1.9, (7′S)-7′-(3,5-difluorophenyl)-1-(2,5-difluoropyridin-4-yl)dihydro-1′H,3′H,5′H-spiro[piperidine-4,2′-pyrazolo[1,2-a]pyrazol]-1′-one], for which the concentration for a half-maximal effect (EC50) worked out at 37 nM. As for `O=C1N2[C@H](c3cc(F)cc(F)c3)CCN2CC12CCN(c1cccc(-n3nccc3C(F)(F)F)n1)CC2` [Example 2.12, (S)-7′-(3,5-difluorophenyl)-1-(6-(5-(trifluoromethyl)-1H-pyrazol-1-y1)pyridin-2-yl)dihydro-l′H,3′H,5′H-spiro[piperidine-4,2′-pyrazolo[1,2-a]pyrazol]-1′-one], the EC50 came out at 6 nM.

`O=C1N2[C@H](c3cc(F)cc(F)c3)CCN2CC12CCN(c1ncccn1)CC2` [Example 1.55, (S)-7′-(3,5-difluorophenyl)-1-(pyrimidin-2-yl)dihydro-1′H,3′H,5′H-spiro[piperidine-4,2′-pyrazolo[1,2-a]pyrazol]-1′-one]: the EC50 came out at 804 nM. As for `O=C1N2[C@H](c3cc(F)cc(F)c3)CCN2CC12CCN(c1ncc(C3CC3)cn1)CC2` [Example 1.56, (S)-1-(5-cyclopropylpyrimidin-2-yl)-7′-(3,5-difluorophenyl)dihydro-1′H,3′H,5′H-spiro[piperidine-4,2′-pyrazolo[1,2-a]pyrazol]-1′-one], the EC50 is 321 nM. As for `CC(C)c1nccc(N2CCC3(CC2)CN2CC[C@@H](c4cc(F)cc(F)c4)N2C3=O)n1` [Example 1.49, (S)-7′-(3,5-difluorophenyl)-1-(2-isopropylpyrimidin-4-yl)dihydro-1′H,3′H,5′H-spiro[piperidine-4,2′-pyrazolo[1,2-a]pyrazol]-1′-one], the figure is 295 nM. Under `O=C1N2[C@H](c3cc(F)cc(F)c3)CCN2CC12CCN(c1nnc(-c3ccccc3)o1)CC2` [Example 1.82, (S)-7′-(3,5-difluorophenyl)-1-(5-phenyl-1,3,4-oxadiazol-2-yl)dihydro-1′H,3′H,5′H-spiro[piperidine-4,2′-pyrazolo[1,2-a]pyrazol]-1′-one] stands 333 nM; under `CCn1cnc2c(N3CCC4(CC3)CN3CC[C@@H](c5cc(F)cc(F)c5)N3C4=O)ncnc21` [Example 3.2, (S)-7′-(3,5-difluorophenyl)-1-(9-ethyl-9H-purin-6-yl)dihydro-l′H,3′H,5′H-spiro[piperidine-4,2′-pyrazolo[1,2-a]pyrazol]-1′-one], 765 nM. For the molecule `O=C1N2[C@H](c3cc(F)cc(F)c3)CCN2CC12CCN(c1cc(-c3ccccc3)ncn1)CC2` [Example 1.35, (S)-7′-(3,5-difluorophenyl)-1-(6-phenylpyrimidin-4-yl)dihydro-1′H,3′H,5′H-spiro[piperidine-4,2′-pyrazolo[1,2-a]pyrazol]-1′-one], the 50% effective concentration (EC50) was 15 nM. With `N#Cc1nccc(N2CCC3(CC2)CN2CC[C@@H](c4cc(F)cc(F)c4)N2C3=O)n1` [Example 1.78, (S)-4-(7′-(3,5-difluorophenyl)-1′-oxodihydro-1′H,3′H,5′H-spiro[piperidine-4,2′-pyrazolo[1,2-a]pyrazol]-1-yl)pyrimidine-2-carbonitrile], the EC50 is 73 nM. As for `Cc1ccn(-c2cccc(N3CCC4(CC3)CN3CC[C@@H](c5cc(F)cc(F)c5)N3C4=O)n2)n1` [Example 2.13, (S)-7′-(3,5-difluorophenyl)-1-(6-(3-methyl-1H-pyrazol-1-yl)pyridin-2-yl)dihydro-1′H,3′H,5′H-spiro[piperidine-4,2′-pyrazolo[1,2-a]pyrazol]-1′-one], the figure is 17 nM; as for `O=C1N2[C@H](c3cc(F)cc(F)c3)CCN2CC12CCN(c1cncc(-n3cccn3)n1)CC2` [Example 1.70, (S)-1-(6-(1H-pyrazol-1-yl)pyrazin-2-yl)-7′-(3,5-difluorophenyl)dihydro-1′H,3′H,5′H-spiro[piperidine-4,2′-pyrazolo[1,2-a]pyrazol]-1′-one], 82 nM. With `CN(C)c1nc(Cl)cc(N2CCC3(CC2)CN2CC[C@@H](c4cc(F)cc(F)c4)N2C3=O)n1` [Example 1.30, (S)-1-(6-chloro-2-(dimethylamino)pyrimidin-4-yl)-7′-(3,5-difluorophenyl)dihydro-1′H,3′H,5′H-spiro[piperidine-4,2′-pyrazolo[1,2-a]pyrazol]-1′-one], the EC50 was determined as 110 nM. With `O=C1N2[C@H](c3cc(F)cc(F)c3)CCN2CC12CCN(c1cc(-n3ccnc3)ccn1)CC2` [Example 2.25, (S)-1-(4-(1H-imidazol-1-yl)pyridin-2-y1)-7′-(3,5-difluorophenyl)dihydro-1′H,3′H,5′H-spiro[piperidine-4,2′-pyrazolo[1,2-a]pyrazol]-1′-one], the EC50 is 50 nM. For `Cc1cc(N2CCC3(CC2)CN2CC[C@@H](c4cc(F)cc(F)c4)N2C3=O)nc(Cl)n1` [Example 1.48, (S)-1-(2-chloro-6-methylpyrimidin-4-yl)-7′-(3,5-difluorophenyl)dihydro-1′H,3′H,5′H-spiro[piperidine-4,2′-pyrazolo[1,2-a]pyrazol]-1′-one], the EC50 came to 144 nM. Under `O=C1N2[C@H](c3cc(F)cc(F)c3)CCN2CC12CCN(c1cnnc(Cl)c1)CC2` [Example 1.96, (S)-1-(6-chloropyridazin-4-yl)-7′-(3,5-difluorophenyl)dihydro-1′H,3′H,5′H-spiro[piperidine-4,2′-pyrazolo[1,2-a]pyrazol]-1′-one] stands 571 nM; under `O=C(c1cc(F)ccc1F)N1CCC2(CC1)CN1CC[C@@H](c3cc(F)cc(F)c3)N1C2=O` [Example 4.21, (S)-1-(2,5-difluorobenzoyl)-7′-(3,5-difluorophenyl) dihydro-1′H,3′H,5′H-spiro[piperidine-4,2′-pyrazolo[1,2-a]pyrazol]-l′-one], 15 nM; under `COc1ccc(F)cc1C(=O)N1CCC2(CC1)CN1CC[C@@H](c3cc(F)cc(F)c3)N1C2=O` [Example 4.14, (S)-7′-(3,5-difluorophenyl)-1-(5-fluoro-2-methoxybenzoyl) dihydro-l′H,3′H,5′H-spiro[piperidine-4,2′-pyrazolo[1,2-a]pyrazol]-l′-one], 386 nM. As for `CC(C)c1nc(Cl)cc(N2CCC3(CC2)CN2CC[C@@H](c4cc(F)cc(F)c4)N2C3=O)n1` [Example 1.47, (S)-1-(6-chloro-2-isopropylpyrimidin-4-yl)-7′-(3,5-difluorophenyl)dihydro-1′H,3′H,5′H-spiro[piperidine-4,2′-pyrazolo[1,2-a]pyrazol]-1′-one], the figure is 153 nM.

For the molecule `Cc1csc2ncnc(N3CCC4(CC3)CN3CC[C@@H](c5cc(F)cc(F)c5)N3C4=O)c12` [Example 1.73, (S)-7′-(3,5-difluorophenyl)-1-(5-methylthieno[2,3-d]pyrimidin-4-yl)dihydro-1′H,3′H,5′H-spiro[piperidine-4,2′-pyrazolo[1,2-a]pyrazol]-l′-one], the EC50 is 4 nM. In the case of `COc1ccnc(N2CCC3(CC2)CN2CC[C@@H](c4cc(F)cc(F)c4)N2C3=O)n1` [Example 1.95, (S)-7′-(3,5-difluorophenyl)-1-(4-methoxypyrimidin-2-yl)dihydro-1′H,3′H,5′H-spiro[piperidine-4,2′-pyrazolo[1,2-a]pyrazol]-1′-one], the EC50 was determined as 86 nM. As for `CCc1cnc(N2CCC3(CC2)CN2CC[C@@H](c4cc(F)cc(F)c4)N2C3=O)nc1` [Example 1.28, (S)-7′-(3,5-difluorophenyl)-1-(5-ethylpyrimidin-2-yl)dihydro-1′H,3′H,5′H-spiro[piperidine-4,2′-pyrazolo[1,2-a]pyrazol]-1′-one], the figure is 409 nM; as for `O=C1N2[C@H](c3cc(F)cc(F)c3)CCN2CC12CCN(S(=O)(=O)c1ccccc1)CC2` [Example 5.3, (S)-7′-(3,5-difluorophenyl)-1-(phenylsulfonyl) dihydro-l′H,3′H,5′H-spiro[piperidine-4,2′-pyrazolo[1,2-a]pyrazol]-l′-one], 830 nM. In the case of `O=C1N2[C@H](c3cc(F)cc(F)c3)CCN2CC12CCN(c1cc(C(F)F)ncn1)CC2` [Example 1.7, (7′S)-1-[6-(difluoromethyl)pyrimidin-4-yl]-7′-(3,5-difluorophenyl)dihydro-1′H,3′H,5′H-spiro [piperidine-4,2′-pyrazolo[1,2-a]pyrazol]-1′-one], the half-maximal effective concentration (EC50) came out at 39 nM. Under `O=C1N2[C@H](c3cc(F)cc(F)c3)CCN2CC12CCN(c1cc(N3CCCC3)ncn1)CC2` [Example 1.69, (S)-7′-(3,5-difluorophenyl)-1-(6-(pyrrolidin-1-yl)pyrimidin-4-yl)dihydro-1′H,3′H,5′H-spiro[piperidine-4,2′-pyrazolo[1,2-a]pyrazol]-l′-one] stands 296 nM; under `Cc1cc(F)cc(C(=O)N2CCC3(CC2)CN2CC[C@@H](c4cc(F)cc(F)c4)N2C3=O)c1` [Example 4.18, (S)-7′-(3,5-difluorophenyl)-1-(3-fluoro-5-methylbenzoyl) dihydro-1′H,3′H,5′H-spiro[piperidine-4,2′-pyrazolo[1,2-a]pyrazol]-l′-one], 18 nM; under `O=C1N2[C@H](c3cc(F)cc(F)c3)CCN2CC12CCN(c1cc(F)ccn1)CC2` [Example 1.3, (7′S)-7′-(3,5-difluorophenyl)-1-(4-fluoropyridin-2-yl)dihydro-1′H,3′H,5′H-spiro[piperidine-4,2′-pyrazolo[1,2-a]pyrazol]-1′-one], 19 nM. With `COc1cc(F)cc(C(=O)N2CCC3(CC2)CN2CC[C@@H](c4cc(F)cc(F)c4)N2C3=O)c1` [Example 4.27, (S)-7′-(3,5-difluorophenyl)-1-(3-fluoro-5-methoxybenzoyl) dihydro-l′H,3′H,5′H-spiro[piperidine-4,2′-pyrazolo[1,2-a]pyrazol]-l′-one], the EC50 came to 26 nM.

The values are drawn from patent US20240425524A1, “SPIROTRICYCLE RIPK1 INHIBITORS AND METHODS OF USES THEREOF” (Merck Sharp & Dohme LLC, priority 2021, published 2024).
